Measured values from patent publication US20240254111A1, “SUBSTITUTED BENZAMIDES AS HERBICIDES” (SYNGENTA CROP PROTECTION AG, priority 2021, published 2024).

Assays:
Assay type in all cases: in vivo
[1] = tested on: Sinapis arvensis (SINAR); experiment: Glasshouse herbicide test, Table B1; conditions: POST Application, evaluated after 14 days
[2] = tested on: Panicum miliaceum (PANMVI); experiment: Glasshouse herbicide test, Table B1; conditions: POST Application, evaluated after 14 days
[3] = tested on: Oryza sativa (ORYSA, Rice); experiment: Glasshouse herbicide test, Table B1 (crop damage); conditions: POST Application, evaluated after 14 days
[4] = tested on: Euphorbia heterophylla (EPHHIL); experiment: Glasshouse herbicide test, Table B1; conditions: POST Application, evaluated after 14 days
[5] = tested on: Amaranthus retoflexus (AMARE); experiment: Glasshouse pre-/post-emergence herbicide test, Table B2; conditions: 130 g/h, evaluated after 13 days
Procedure: (§1) Seeds of a variety of test species are sown in standard soil in pots Amaranthus retoflexus (AMARE), Setaria faberi (SETFA), Echinochloa crus-galli (ECHCG), Ipomoea hederacea (IPOHE)). After cultivation for one day (pre-emergence) or after 8 days cultivation (post-emergence) under controlled conditions in a glasshouse (at 24/16° C., day/night; 14 hours light; 65% humidity), the plants are sprayed with an aqueous spray solution derived from the formulation of the technical active ingredient in acetone/water (50:50) solution containing 0.5% Tween 20 (polyoxyethelyene sorbitan monolaurate, CAS RN 9005-64-5). Compounds are applied at 130 g/h unless otherwise indicated. The test plants are then grown in a glasshouse under controlled conditions in a glasshouse (at 24/16° C., day/night; 14 hours light; 65% humidity) and watered twice daily. After 13 days for pre and post-emergence, the test is evaluated for the percentage damage caused to the plant. The biological activities are shown in the following table on a five-point scale (5=80-100%; 4=60-79%; 3=40-59%; 2=20-39%; 1=0-19%).

[6] = tested on: Echinochloa crus-galli (ECHCG); experiment: as above; conditions: 130 g/h, evaluated after 13 days
Procedure: as §1

[7] = tested on: Ipomoea hederacea (IPOHE); experiment: as above; conditions: 130 g/h, evaluated after 13 days
Procedure: as §1

[8] = tested on: Setaria faberi (SETFA); experiment: as above; conditions: 130 g/h, evaluated after 13 days
Procedure: as §1

SMILES | SINAR damage to plant (100=total damage; 0=no damage) ([1]; rate 30 g/ha) | SINAR damage to plant (100=total damage; 0=no damage) ([1]; rate 130 g/ha) | SINAR damage to plant (100=total damage; 0=no damage) ([1]; rate 250 g/ha) | PANMI damage to plant (100=total damage; 0=no damage) ([2]; rate 30 g/ha) | PANMI damage to plant (100=total damage; 0=no damage) ([2]; rate 130 g/ha) | PANMI damage to plant (100=total damage; 0=no damage) ([2]; rate 250 g/ha) | ORYSA damage to plant (100=total damage; 0=no damage) ([3]; rate 30 g/ha) | ORYSA damage to plant (100=total damage; 0=no damage) ([3]; rate 130 g/ha) | ORYSA damage to plant (100=total damage; 0=no damage) ([3]; rate 250 g/ha) | EPHHL damage to plant (100=total damage; 0=no damage) ([4]; rate 30 g/ha) | EPHHL damage to plant (100=total damage; 0=no damage) ([4]; rate 130 g/ha) | EPHHL damage to plant (100=total damage; 0=no damage) ([4]; rate 250 g/ha) | AMARE percentage damage, five-point scale ([5]; POST Application) | AMARE percentage damage, five-point scale ([5]; PRE Application) | ECHCG percentage damage, five-point scale ([6]; POST Application) | ECHCG percentage damage, five-point scale ([6]; PRE Application) | IPOHE percentage damage, five-point scale ([7]; POST Application) | IPOHE percentage damage, five-point scale ([7]; PRE Application) | SETFA percentage damage, five-point scale ([8]; POST Application) | SETFA percentage damage, five-point scale ([8]; PRE Application)
Cn1nnnc1NC(=O)c1ccc(OC(F)(F)F)c(NC(=O)C2CCOCC2)c1Cl [Compound 1.001, N-[2-chloro-3-[(1-methyltetrazol-5-yl)carbamoyl]-6-(trifluoromethoxy)phenyl]-tetrahydropyran-4-carboxamide] | 100 | 100 | 100 | 90 | 100 | 100 | 0 | 0 | 0 | 100 | 100 | 100 | 5 (5=80-100%) | 5 (5=80-100%) | 5 (5=80-100%) | 5 (5=80-100%) | 5 (5=80-100%) | 4 (4=60-79%) | 5 (5=80-100%) | 5 (5=80-100%)
Cn1nnnc1NC(=O)c1ccc(OC(F)F)c(NC(=O)C2CCOCC2)c1Cl [Compound 1.002, N-[2-chloro-6-(difluoromethoxy)-3-[(1-methyltetrazol-5-yl)carbamoyl]phenyl]tetrahydropyran-4-carboxamide] | 90 | 100 | 100 | 90 | 100 | 100 | 0 | 10 | 20 | 90 | 100 | 100 | 5 (5=80-100%) | 5 (5=80-100%) | 5 (5=80-100%) | 5 (5=80-100%) | 4 (4=60-79%) | 5 (5=80-100%) | 5 (5=80-100%) | 5 (5=80-100%)
Cn1nnnc1NC(=O)c1ccc(OC(F)(F)F)c(NC(=O)C2(C)CCOCC2)c1Cl [Compound 1.007] |  |  |  |  |  |  |  |  |  |  |  |  | 5 (5=80-100%) | 5 (5=80-100%) | 5 (5=80-100%) | 2 (2=20-39%) |  | 3 (3=40-59%) | 5 (5=80-100%) | 1 (1=0-19%)
Cn1nnnc1NC(=O)c1ccc(OC(F)F)c(NC(=O)C2(C)CCOCC2)c1Cl [Compound 1.009] |  |  |  |  |  |  |  |  |  |  |  |  | 5 (5=80-100%) | 5 (5=80-100%) | 4 (4=60-79%) | 1 (1=0-19%) | 4 (4=60-79%) | 2 (2=20-39%) | 2 (2=20-39%) | 1 (1=0-19%)
Cc1c(C(=O)Nc2nnnn2C)ccc(OC(F)(F)F)c1NC(=O)C1CCOCC1 [Compound 1.010] |  |  |  |  |  |  |  |  |  |  |  |  | 4 (4=60-79%) | 5 (5=80-100%) | 5 (5=80-100%) | 3 (3=40-59%) | 4 (4=60-79%) | 2 (2=20-39%) | 5 (5=80-100%) | 2 (2=20-39%)
CCn1nnnc1NC(=O)c1ccc(OC(F)(F)F)c(NC(=O)C2CCOCC2)c1Cl [Compound 1.011] |  |  |  |  |  |  |  |  |  |  |  |  | 5 (5=80-100%) | 5 (5=80-100%) | 5 (5=80-100%) | 5 (5=80-100%) | 5 (5=80-100%) | 5 (5=80-100%) | 5 (5=80-100%) | 5 (5=80-100%)
CCn1nnnc1NC(=O)c1ccc(OC(F)F)c(NC(=O)C2CCOCC2)c1Cl [Compound 1.012] |  |  |  |  |  |  |  |  |  |  |  |  | 5 (5=80-100%) | 4 (4=60-79%) | 5 (5=80-100%) | 5 (5=80-100%) | 4 (4=60-79%) | 4 (4=60-79%) | 5 (5=80-100%) | 3 (3=40-59%)
